Measurements reported in patent US10189875B2, “Anti-cancer peptide and use thereof” (ENSOL BIOSCIENCES INC., priority 2015, dated 2019).

How the values were obtained:
[1] = tested on: 4T1 mouse breast cancer cells; experiment: Survival rate in the 4T1 lung metastasis model; type: in vivo, female BALB/c mice; details: FIG. 3
Method: Whether the metastasis of cancer cells was inhibited by the peptide of Example 1 was evaluated experimentally. Specifically, in order to evaluate the inhibitory effect of the peptide of Example 1 on the metastasis of cancer cells, testing was performed using a lung metastasis model with 4T1 mouse breast cancer cells (ATCC CRL-2539, USA). The peptide of Example 1 was injected into the caudal vein of the tail of female BALB/c mice (SPF, SLC/Japan). The test group was divided into three groups according to the administration concentration; low concentration [40/2 g/head], middle concentration [80/2 g/head], and high concentration 1120, ug/headl. The negative control group was treated in the same manner as the test group, with the exception that the peptide of Example 1 was not administered. […] The weight of the mouse was measured two times a week, and an autopsy was performed on the 21st day after the injection of cancer cells. The lung tissue was excised, stained with a Bouin's solution, and fixed, and then the number of metastatic tumor nodules was counted. […]
The anticancer effect of the peptide of Example 1 was evaluated experimentally. Specifically, in order to evaluate the effect of the peptide of Example 1 on surviving individuals suffering from cancer, the survival rate was measured using an animal model prepared in the same manner as in Example 3. […]

[2] = tested on: SNU-790 thyroid cancer cells; experiment: Transwell invasion assay (TGF-beta1-induced invasion of cancer cells); type: cell-based; details: invasion increased by 10 ng/ml TGF-beta1; peptide at 40 and 100 [1M; 2 days culture; FIG. 1
Method: Whether the invasion of cancer cells was inhibited by the peptide of Example 1 was evaluated experimentally. Specifically, in order to evaluate the effect of the peptide of Example 1 on inhibiting the invasion of cancer cells, a Transwell invasion assay was performed. Growth factor reduced Matrigel (BD Biosciences, Franklin Lakes, N.J., USA) was diluted at 1:1 with a medium [RPMI 1640 medium (Welgene Inc., Korea)] and 70 fek thereof was added to the top chamber of the Transwell insert (Corning cat#3422, Tewksbury Mass., USA), followed by a coating process for 1 hr in a CO2 incubator at 37° C. 500 fek of a medium [RPMI 1640 medium (Welgene Inc., Korea)] containing 10% fetal bovine serum (FBS, Cellgro cat#35-015-CV, USA) was added to the bottom chamber, after which the test group was added with 10 ng/ml of TGF-betal (PromoKine, Germany). The coated top chamber was mounted to the bottom chamber, and 100 ick of RPMI 1640 medium containing 0.5% FBS with 20000 SNU-790 thyroid cancer cells (Korean Cell Line Bank) was added to the top chamber. In this way, a negative control group and two test groups were prepared. […]
The test groups, the control group, and the negative control group were cultured in a CO2 incubator for 2 days at 37° C. […] Four randomly selected regions were photographed and the number of cells in these regions was counted, averaged and graphed. […]

[3] = tested on: B16-BL6 mouse melanoma cells; experiment: Survival rate in animal model with B16-BL6 melanoma cells; type: in vivo, male C57BL/6J mice; details: FIG. 4
Method: The anticancer effect of the peptide of Example 1 was evaluated experimentally. Specifically, in order to evaluate the effect of the peptide of Example 1 on surviving individuals suffering from cancer, the survival rate was measured using an animal model with B16-BL6 mouse melanoma cells (Korean Cell Line Bank, Korea).
B16-BL6 cells {1×10^5 cells/head} were subcutaneously injected into 7-week-old male C57BL/6J mice (Orientbio Inc., Korea). After one week, the peptide of Example 1 was intraperitoneally administered. The test group was divided into three groups according to the administration concentration; low concentration {40, ttg/head}, middle concentration {80, ttg/head}, and high concentration {120, ttg/head}. The negative control group was treated in the same manner as the test group, with the exception that the peptide of Example 1 was not administered. The administration was repeated two times a week for two weeks from the first administration day and then once a week for an additional four weeks, and the peptide was administered a total of eight times. To measure the survival rate, the survival rate for each group was observed and recorded. In the graph of FIG. 4, showing the survival rate, the x-axis represents the number of days since injection of the cancer cells, and the y-axis represents the survival rate (%). […]

[4] = tested on: 4T1 mouse breast cancer cells; experiment: Lung metastasis model with 4T1 cells, count of metastatic tumor nodules; type: in vivo, female BALB/c mice; details: FIG. 2; for number of tumor nodules (lung): caudal vein, three times a week for three weeks, autopsy on 21st day, vs negative control
Method: Whether the metastasis of cancer cells was inhibited by the peptide of Example 1 was evaluated experimentally. Specifically, in order to evaluate the inhibitory effect of the peptide of Example 1 on the metastasis of cancer cells, testing was performed using a lung metastasis model with 4T1 mouse breast cancer cells (ATCC CRL-2539, USA). The peptide of Example 1 was injected into the caudal vein of the tail of female BALB/c mice (SPF, SLC/Japan). The test group was divided into three groups according to the administration concentration; low concentration [40/2 g/head], middle concentration [80/2 g/head], and high concentration 1120, ug/headl. The negative control group was treated in the same manner as the test group, with the exception that the peptide of Example 1 was not administered. On the day after first administration, 4T1 cells (1.5×10^4 cells/head) were injected into the mouse tail caudal vein. After 1 hr, the peptide of Example 1 was secondarily administered. The administration of the peptide was performed three times a week (Monday, Wednesday, and Friday) for a total of three weeks ranging from the second administration day to the final administration day. The weight of the mouse was measured two times a week, and an autopsy was performed on the 21st day after the injection of cancer cells. The lung tissue was excised, stained with a Bouin's solution, and fixed, and then the number of metastatic tumor nodules was counted. Also, a group (a normal group), treated in the same manner as the test group, was prepared as a control group, with the exception that neither the peptide of Example 1 nor 4T1 cells were added. The graph of FIG. 2 is plotted with an x-axis for each group and a y-axis for the number of tumor nodules. As such, n designates the number of individuals in each group, and P designates the significance probability.

[5] = low, middle and high concentration groups compared

With QLHLD [Example 1] the “survival rate, comparison among dose groups” value [1, 5] was “highest in the test group in which the peptide was administered at the middle concentration”, the survival rate ([1]; middle and high concentrations, caudal vein, vs negative control) was “some individuals survived even after the death of the negative control group” and the “invasion of cancer cells (number of invading cells)” value [2] was “inhibited in a concentration-dependent manner”. For the same substance, the “survival rate, comparison among dose groups” value [3, 5] was “highest in the test group in which the peptide was administered at the middle concentration”, the survival rate ([3]; test groups (low 40, middle 80, high 120 ttg/head), intraperitoneal, eight administrations, vs negative control) was “some individuals survived even after the death of the negative control group” and the “number of tumor nodules (lung)” value ([4]; high concentration (120 ug/head)) was “significantly (P<0.001) reduced”. For the same substance, the “inhibitory effect of cancer metastasis, comparison among dose groups” value [4, 5] was “highest in the test group in which the peptide was administered at the middle concentration” and the “number of tumor nodules (lung)” value ([4]; middle concentration [80/2 g/head]) was “significantly (P<0.001) reduced”.
